Results as given in patent publication EP2137192B1, “Derivatives of galantamine as pro-drugs for the treatment of human brain diseases” (priority 2008, dated 2009).

How the values were obtained:
[1] = logP (partition coefficient); type: physicochemical; details: source of the values not stated
Text: "logP" is defined as the decadic logarithm of the partition coefficient P which is the ratio of […], as the neutral molecule.

[2] = molecular target: T1, a4ß2 neuronal nicotinic acetylcholine receptor (Homo sapiens, UniProt P17787+P43681); experiment: Allosteric potentiation of nAChR in HEK-293 cells, whole-cell patch clamp; type: cell-based; details: increase in response to acetylcholine, Figure 3
T1 construct: expressed in transfected cells; host or cells: HEK-293
T1 sequence (P43681 29-627 limits assumed): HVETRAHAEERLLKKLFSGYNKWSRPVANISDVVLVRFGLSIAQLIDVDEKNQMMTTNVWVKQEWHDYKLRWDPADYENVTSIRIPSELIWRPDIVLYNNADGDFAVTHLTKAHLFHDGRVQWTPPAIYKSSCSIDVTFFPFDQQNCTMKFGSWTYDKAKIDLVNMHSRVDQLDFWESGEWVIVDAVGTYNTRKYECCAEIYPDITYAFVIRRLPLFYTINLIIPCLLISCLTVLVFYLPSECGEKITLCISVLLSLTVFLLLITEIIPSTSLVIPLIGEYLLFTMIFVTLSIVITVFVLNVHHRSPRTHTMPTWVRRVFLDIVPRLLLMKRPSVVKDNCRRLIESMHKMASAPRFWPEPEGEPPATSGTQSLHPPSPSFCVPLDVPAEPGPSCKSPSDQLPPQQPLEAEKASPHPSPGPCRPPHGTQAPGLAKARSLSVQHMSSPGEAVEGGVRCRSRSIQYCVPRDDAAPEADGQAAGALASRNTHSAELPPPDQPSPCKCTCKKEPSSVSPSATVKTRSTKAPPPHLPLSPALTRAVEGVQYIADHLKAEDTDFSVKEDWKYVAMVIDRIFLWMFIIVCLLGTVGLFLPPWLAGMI
T1 sequence (P17787 26-502): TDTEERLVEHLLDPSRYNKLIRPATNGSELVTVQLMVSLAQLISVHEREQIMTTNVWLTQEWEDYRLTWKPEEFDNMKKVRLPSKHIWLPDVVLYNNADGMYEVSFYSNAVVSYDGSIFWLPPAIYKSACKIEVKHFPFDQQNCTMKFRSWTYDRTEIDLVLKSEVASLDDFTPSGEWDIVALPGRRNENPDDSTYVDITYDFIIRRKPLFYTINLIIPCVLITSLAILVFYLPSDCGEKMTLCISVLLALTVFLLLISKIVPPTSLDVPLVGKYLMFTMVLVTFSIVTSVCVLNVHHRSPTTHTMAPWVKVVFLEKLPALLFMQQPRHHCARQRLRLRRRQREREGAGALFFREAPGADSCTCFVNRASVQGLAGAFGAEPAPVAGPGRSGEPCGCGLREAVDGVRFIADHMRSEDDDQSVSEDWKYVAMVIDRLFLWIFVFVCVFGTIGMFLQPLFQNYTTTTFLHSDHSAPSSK
Procedure: (§1) 1983;91:49-60. […] Butyrylcholinesterase, 25 units/ml, was used. Reaction temperature was 37°C.
Investigation of the allosteric modulation effect of drug candidates on nicotinic acetylcholine receptors (nAChRs) expressed in HEK-293 cells by electrophysiology. Results shown as figure 3
Single HEK-293 cells expressing either human α4β2, human α3β4, or chimeric chicken α7 (with mouse 5HT3) nAChR were plated on fibronectin-coated cover slips for 3 days before measurement. The selected nAChR containing cells were placed in the recording bath, filled with extracellular buffer (145 mM NaCl, 5 mM KCl, 1 mM MgCl2, 2 mM CaCl2, 10 mM D-glucose, 10 mM HEPES, pH 7.3, approximately 300 mOsm). […] A programmable puller (Sutter, USA) was used to prepare a twin pair of ready for use pipettes. […] 1, 5, 10, 50, 100, 500, 1,000, 5,000 and 10,000 nM, and solutions were applied to the cell surface during 500 ms pulses through the U-tube, and then corresponding currents, digitized to 10 kHz, were recorded for 10 s. […] The averaged peak amplitudes of the currents, measured in the presence of selected compound concentrations, were compared with those determined in the absence of compounds (control) and they were calculated as % of control. […]

[3] = in vivo; details: for Co (Brain), highest pro-galantamine concentration achieved in mouse brain: i.v. injection of 3 mg/kg, for Gal: galantamine after the same amount of galantamine; for Kp: in vivo
Procedure: In table 1, the key pharmacokinetic data of benzoyl-galantamine, of several other R1-pro-galantamines and of galantamine (for comparison) are listed. Table 1: Pharmacokinetic data of several R1-pro-galantamines in the mouse
Co is the highest pro-galantamine concentration (ng/ml) achieved in mouse brain after i.v. injection of 3 mg/kg of pro-galantamine. R-Pro ist he brain-to-blood concentration ratio of pro-galantamine, R-Gal that of galantamine under these experimental conditions. For comparison, Co and R-Gal are also provided for i.v. injection of the same amount of galantamine.
• Figure 1: Brain esterase inhibition by galantamine and several pro-galantamines. A 20% mouse brain homogenate was used, supplemented with 200 µM of acetylthiocholine as substrate, and the initial reaction kinetics were measured according to Riddles PW, Blakeley RL, Zerner B., "Reassessment of Ellman's reagent." Methods Enzymol. 1983;91:49-60. […] In derivative Gln 1063 R1 in formula I is -O-Si(CH3)2-C(CH3)2-C(CH3)2H. • Figure 2: Enzymatic cleavage of pro-galantamine to galantamine. Butyrylcholinesterase, 25 units/ml, was used. Reaction temperature was 37°C. Appearance of the fluorescent reaction product galantamine was determined by fluorescence detection. • Figure 3: Interaction of galantamine and pro-galantamine with a4ß2 neuronal nicotinic acetylcholine receptor ectopically expressed in HEK-293 cells. The increase in response to acetylcholine in the presence of galantamine and Gln-1062, respectively, was determined by whole-cell patch clamp recording. […] Scopolamine induces a memory deficit that can be measured by […] alternation in a T-maze trial. The cognition enhancing drugs were i.p. injected at several different doses together with scopolamine 20 min before a T-maze trial. Recovery was measured as a function of dose, and the EC50 was determined for each drug.
Determination of the pharmacokinetic profiles of Gln-1062 and its cleavage product galantamine in blood and brain. Determine the brain-to-blood concentration ratios of Gln-1062 and its cleavage product galantamine, and assess the blood-brain barrier penetration capacities.
Blood samples were collected from the retro-orbital plexus. 0.5 ml of blood was collected into a pre-labeled polypropylene micro centrifuge tube containing sodium citrate as the anticoagulant, and kept on ice.
Immediately after blood withdrawal, brain was perfused with phosphate buffer saline (pH 7.4), removed and frozen on dry ice.
Brain samples were thawed on ice and weighed. An appropriate volume ice cold homogenizing media (methanol: water::20:80,v/v) added. On ice, homogenized the brain sample with the polytron homogenizer and make up the volume with homogenizing media to get 1 gm of brain per 4 mL of homogenate. After homogenizing, immediately freezed the brain homogenate samples at -80°C until analysis.

[4] = galantamine administered as the unmodified drug; cited from earlier work
[5] = Reversal from scopolamine-induced amnesia in mice (T-maze alternation); type: in vivo; details: i.p., Figure 6
Procedure: as §1
Gln 1062, Gln 0979 and galanthamine were dissolved in 15% -hydroxypropyl-β-cyclodextrin in 96 mM NaCl (isotonic) supplied by the sponsor. Gln 1062 and Gln 0979 were used in concentrations of […], 0.03, 0.1 and 0.2 mg/ml, which when given in a volume of 10 ml/kg result in doses of 0.1, 0.3, 1 and 2 mg/kg i.p., respectively. Galanthamine was used in concentrations of 0.03, 0.1, 0.2 and 0.5 mg/ml, which when given in a volume of 10 ml/kg result in doses of 0.3, 1, 2 and 5 mg/kg i.p., respectively. Control animals received 15% -hydroxypropyl-β-cyclodextrin in 96 mM NaCl injection as a vehicle. […]
The potential cognitive enhancing property of Gln 1062, Gln 0979 and galanthamine were evaluated in scopolamine-treated mice in the T-maze alternation model under the same experimental conditions. […]
Memory performance was assessed by the percentage of spontaneous alternation in the T-maze. […]
The percentage of alternation over the 14 free-choice trials was determined for each mouse and was used as an index of working memory performance. […]
Analysis of variance (ANOVA) was performed on the result data. […] The drug induced reversion of scopolamine-induced memory deficit was calculated by setting the respective response of the saline/vehicle group as 100% and the scopolamine/vehicle group as 0% reversion. […]

[6] = molecular target: T2, brain cholinesterase (Mus musculus, UniProt P21836); experiment: Inhibition of brain esterase, modified Ellman test in mouse brain homogenate; type: biochemical; details: 20% mouse brain homogenate, 200 µM acetylthiocholine; Figure 1
T2 construct: from tissue; host or cells: mouse brain homogenate
T2 sequence (P21836 32-614): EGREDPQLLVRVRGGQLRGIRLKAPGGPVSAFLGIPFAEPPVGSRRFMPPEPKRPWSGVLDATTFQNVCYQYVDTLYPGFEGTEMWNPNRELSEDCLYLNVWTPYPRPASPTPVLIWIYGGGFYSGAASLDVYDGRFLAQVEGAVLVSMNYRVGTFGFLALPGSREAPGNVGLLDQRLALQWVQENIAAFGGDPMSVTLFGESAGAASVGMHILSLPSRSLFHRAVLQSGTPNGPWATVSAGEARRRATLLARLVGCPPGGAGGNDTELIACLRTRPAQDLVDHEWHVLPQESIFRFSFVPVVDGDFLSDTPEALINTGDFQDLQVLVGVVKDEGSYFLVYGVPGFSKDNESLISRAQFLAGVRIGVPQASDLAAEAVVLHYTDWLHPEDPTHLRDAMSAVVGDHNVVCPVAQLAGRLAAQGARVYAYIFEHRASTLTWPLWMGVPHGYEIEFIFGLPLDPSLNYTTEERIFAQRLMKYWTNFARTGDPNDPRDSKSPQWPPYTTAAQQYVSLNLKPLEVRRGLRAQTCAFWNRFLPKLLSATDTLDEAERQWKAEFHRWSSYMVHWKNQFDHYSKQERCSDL
Procedure: as §1
The brain is removed from the animal (mouse), shock frozen in liquid nitrogen and stored at minus 80°C until use. Before preparing the extract, the frozen brain is thawed on ice and the weight is determined. Ice cold buffer (130 mM NaCl, 5 mM KCl, 2.5 mM CaCl2, 1 mM MgCl2, 5 mM Glucose, 5 mM HEPES, pH 7.4) is added to the thawed mouse brain (1:4, weight to volume, resulting in a 20 % brain homogenate). The tissue is then homogenized in a potter homogeniser on ice, moving the piston up and down 11 times at 240 rpm. The freshly prepared mouse brain homogenate is divided into aliquots.
A modified Ellmann's esterase test is used. Briefly the method relies on the cleavage of the substrate acetylthiocholine to acetate and thiocholine. […] The inhibition is expressed as per cent of the non inhibited reaction according to following equation: % Inhibition = 100*(1-(Slopeinhibited/Slopenoninhibited)). […]

| SMILES | logP [1] | maximal enhancement of response [2] | Co (Brain), highest pro-galantamine concentration achieved in mouse brain [3] [ng/mL] | Kp ([3]; mouse) | Kp ([3]; mouse, iv, 3 mg/kg) | brain-to-plasma ratio [4] | efficacy in reversing scopolamine-induced amnesia relative to galantamine [5] | brain-to-blood concentration ratio (RBB-proGal) ([3]; mice) | concentration in blood at start of curve ([3]; mouse blood, 3mg/kg, Figure 4b) | R-Pro, brain-to-blood concentration ratio of pro-galantamine ([3]; mouse, i.v. 3 mg/kg of pro-galantamine) | R-Gal, brain-to-blood concentration ratio of galantamine ([3]; mouse, i.v. 3 mg/kg of pro-galantamine, for Gal: same amount of galantamine) | inhibition of brain esterase [6] |
| --- | --- | --- | --- | --- | --- | --- | --- | --- | --- | --- | --- | --- |
| COc1ccc2c3c1O[C@H]1C[C@@H](O)C=C[C@@]31CCN(C)C2 [Gal, galantamine] | 1.7 | ~ 40% | 1741 | ~1.3 | 1.2 | ~ 1.3 |  |  |  |  |  |  |
| COc1ccc2c3c1O[C@H]1C[C@@H](OC(=O)c4ccccc4)C=C[C@@]31CCN(C)C2 [Gln 1062, (4aS,6R,8aS)-4a,5,9,10,11,12-Hexahydro-3-methoxy-11-methyl-6H-benzofuro[3a,3,2-ef][2]benzazepin-6-ol, benzoate (ester)] | 3 | ~ 17% | 4812 |  |  |  | approximately 4 times | > 19 | about 0.3 µg/g | 19.3 | 2.2 | little, if any cholinesterase inhibitory activity |
